Patent US20250345356A1, “TIRAPAZAMINE COMPOSITIONS AND METHODS” (priority 2024, published 2025)
“And” between values parts separate entries of the source, which are not always exact repeats. Equal entries are not always repeated. Where two headings read alike, the source gives them in different places.

Assays:
[1] = test system: unresectable intermediate stage HCC; settings: cited from earlier work
[2] = mice, intravenous administration; cited from earlier work
HCC [3] = settings: cited from earlier work
[4] = cited from earlier work
HCC [5] = settings: cited from earlier work; remark: listed apart in the source
[6] = Activation energy of degradation from stability studies; type: physicochemical; settings: formulation without HP-beta-CD, long-term stability results
Experimental: Activation energy (Ea) is the least possible energy required to start a chemical reaction. Molecules need some kinetic energy or velocity to collide with other molecules to start a reaction. No reaction will take place if the collision doesn't happen, or if the molecules don't have enough kinetic energy. The energy needed to initiate the reaction is known as Activation energy.
The activation energy (Ea) of a reaction is measured in joules (J), kilojoules per mole (kJ/mol) or kilocalories per mole (kcal/mol)
The Activation Energy Formula is as follows: […]
Where A is a constant, k is the rate constant, Ea is the activation energy of degradation in kcal/mol, R is the universal gast constant (1.98 calKmole) and I is the absolute temperature (° K).
In the formulation without HP-beta-CD, Ea of TPZ is calculated as 35 kcal/mole based on the long-term stability results. For the HP-beta-CD new formulation, Ea of the complex is calculated at 44 kcal/mole using a new formulation methodology called “Accelerated Stability Assessment Program (ASAP)” that can be executed in a few weeks with a few storage conditions and temperature ranging from 40° C. to 70° C. inclusive. The higher the activation energy, the more kinetically stable the complex is.

Nc1n[n+]([O-])c2ccccc2[n+]1[O-] [tirapazamine, 3-amino-1,2,4-benotriazine-1,4-di-N-oxide]
median duration of target lesion response ([1]; 15 patients who achieved CR by mRECIST): not reached
median duration of target lesion response ([1]; 21 patients who achieved CR or PR): not reached
treatment emergent AE grade 3 or higher: ALT increased ([1]; 27 patients): 11.1%
treatment emergent AE grade 3 or higher: AST increased ([1]; 27 patients): 14.8%
treatment emergent AE grade 3 or higher: hypertension ([1]; 27 patients): 25.9%
treatment-related AE: ALT increased ([1]; 27 patients): 7.4%
treatment-related AE: AST increased ([1]; 27 patients): 7.4%
treatment-related AE: bradycardia ([1]; 27 patients): 7.4%
treatment-related AE: fatigue ([1]; 27 patients): 7.4%
treatment-related AE: hypertension ([1]; 27 patients): 11.1%
CR rate by lesions ([1]; 46 target lesions): 65.2%
ORR (CR+PR) by lesions ([1]; 46 target lesions): 78.3%
local recurrence in the embolized territory ([1]; CR patients): 13.3%
local recurrence in the embolized territory ([1]; CR+PR patients): 28.6%
dose-limiting toxicity (DLT) ([1]; all cohorts, with TAE): no dose-limiting toxicity
patients who achieved CR in target lesions ([1]; mRECIST, 25 evaluable patients): 60.0%
patients who achieved CR+PR ([1]; mRECIST, 25 evaluable patients): 84.0%
Complete Response (CR) rate ([1]; two phase I studies, tirapazamine with TAE): 50-60%
MTD of tirapazamine in combination with TAE ([1]; up to 20 mg/m^2 I.A.): not established
LD10 [2]: 294 mg/kg
LD50 [2]: 303 mg/kg
CR or partial response (PR), objective response rate (ORR) (HCC [3]; 17 patients): 64.7%
patients who achieved CR as the best target tumor lesion response (HCC [3]; 17 patients): 47.1%
median Time to Progression (HCC [3]; mRECIST criteria): not reached
tumor responses ([4]; 36-450 mg/m^2 i.v.): no tumor responses were seen
AUC of tirapazamine at which ototoxicity was not observed ([4]; human, in vivo, 330 mg/m2): ≤ 1252 µg·min/mL
Maximally Tolerated Dose (MTD) ([4]; human, in vivo, iv): 390 mg/m^2
dose-limiting toxicities ([4]; human, in vivo, iv): reversible deafness and tinnitus
duration of cramps ([4]; human, in vivo, iv): 1 to 14 days
mean Vdss ([4]; human, in vivo, iv): 39 ± 12.5 L
mean clearance (±SD) ([4]; human, in vivo, iv): 624.2 ± 157 mL/min
onset of muscle cramps after the start of infusion ([4]; human, in vivo, iv): 2.4 to 24 h
increase in AUC(0-inf) ([4]; human, in vivo): ~19 fold
necrosis in the HCC within the territory of HAL (HCC [5]; Day 1 post-treatment, tirapazamine 3 mg/kg, doxorubicin 10 mg/kg, transient left HAL): more than 99%
necrosis of HCCs in the territory of the left HAL (HCC [5]; Day 7, 3 mg/kg with left HAL, H&E): 90-99%
tumor necrosis, individual mice (HCC [5]; Day 7, three mice, 3 mg/kg with left HAL, 3 mg/kg): 90% and 99% (2×)
necrosis in the tumor-free part of the left lobe of the liver (HCC [5]; Day 7, with left HAL): no evidence of necrosis
activation energy of degradation (Ea) [6]: 35 kcal/mol
